Data as given in patent US6291458A, “Morpholinobenzamide salts” (AstraZeneca AB, priority 1997, dated 2001).
Converted amounts (≈) assume the structure as drawn. Read-outs that look alike come from different tables or passages of the source. Values belong to the compound of their own block, whether it stands above or below them.

How the values were obtained:
[1] = Solubility and release rate of the base (background statement); format: physicochemical; settings: base form
[2] = Solubility determination in purified water at 25° C.; format: physicochemical; settings: HPLC assay
Description: Excess of (R)-N-[5-methyl-8-(4-methylpiperazin-1-yl)-1,2,3,4-tetrahydro-2-naphthyl]- 4-morpholinobenzamide or it's corresponding salts was added to purified water. The solution was agitated overnight in a water bath, kept at 25° C. by using a thermostat (Julabo SW and U3, 60 strokes/min). The saturated solution was centrifuged and filtered through a 0.45 .quadrature.m Gelman GHP Acrodisc® 13 filter, diluted and assayed by HPLC.

[3] = rate is different in the stomach and the intestines
[4] = water, salts, read-out: Solubility mg/mL (Solubility in Water at 25° C. for different salts)

pH dependence of release rate [1, 3]: pH dependent
release rate [1, 3]: slow
solubility in water ([1]; result in words): extremely low
Structure (SMILES): Cc1ccc(N2CCN(C)CC2)c2c1CCC(NC(=O)c1ccc(N3CCOCC3)cc1)C2 (racemic) [compound of formula I, N-[5-methyl-8-(4-methylpiperazin-1-yl)-1,2,3,4-tetrahydro-2-naphthyl]-4-morpholinobenzamide]

Structure (SMILES): Cc1ccc(N2CCN(C)CC2)c2c1CC[C@@H](NC(=O)c1ccc(N3CCOCC3)cc1)C2 [Base, (R)-N-[5-Methyl-8-(4-methylpiperazin-1-yl)-1,2,3,4-tetrahydro-2-naphthyl]-4-morpholinobenzamide]
solubility ([2]; water, base, read-out: Solubility in Water): 0.034 mg/mL (≈ 75.8 µM)

Structure (SMILES): Br.Br.Cc1ccc(N2CCN(C)CC2)c2c1CC[C@@H](NC(=O)c1ccc(N3CCOCC3)cc1)C2 [Dihydrobromide, (R)-N-[5-methyl-8-(4-methylpiperazin-1-yl)-1,2,3,4-tetrahydro-2-naphthyl]-4-morpholinobenzamide dihydrobromide]
solubility [2, 4]: 4.6 mg/mL

Structure (SMILES): Cc1ccc(N2CCN(C)CC2)c2c1CC[C@@H](NC(=O)c1ccc(N3CCOCC3)cc1)C2.O=C(O)CO [Glycolate, (R)-N-[5-Methyl-8-(4-methylpiperazin-1-yl)-1,2,3,4-tetrahydro-2-naphthyl]-4-morpholinobenzamide Glycolate]
solubility [2, 4]: > 23.6 mg/mL

Structure (SMILES): Cc1ccc(N2CCN(C)CC2)c2c1CC[C@@H](NC(=O)c1ccc(N3CCOCC3)cc1)C2 [L-Ascorbate, (R)-N-[5-Methyl-8-(4-methylpiperazin-1-yl)-1,2,3,4-tetrahydro-2-naphthyl]-4-morpholinobenzamide L-Ascorbate]
Solubility mg/mL (Solubility in Water at 25° C. for different salts) ([2]; salts): 4.2 mg/mL

Structure (SMILES): C[C@H](O)C(=O)O.Cc1ccc(N2CCN(C)CC2)c2c1CC[C@@H](NC(=O)c1ccc(N3CCOCC3)cc1)C2 [L-Lactate, (R)-N-[5-Methyl-8-(4-methylpiperazin-1-yl)-1,2,3,4-tetrahydro-2-naphthyl]-4-morpholinobenzamide L-Lactate]
solubility ([2]; salts, read-out: Solubility mg/mL (Solubility in Water at 25° C. for different salts)): 18.8 mg/mL

Structure (SMILES): Cc1ccc(N2CCN(C)CC2)c2c1CC[C@@H](NC(=O)c1ccc(N3CCOCC3)cc1)C2 [Salicylate, (R)-N-[5-Methyl-8-(4-methylpiperazin-1-yl)-1,2,3,4-tetrahydro-2-naphthyl]-4-morpholinobenzamide Salicylate]
Solubility mg/mL (Solubility in Water at 25° C. for different salts) ([2]; salts): 0.29 mg/mL
